Source: patent US8815321B2, “Geranylamine derivatives as flavouring agents” (Givaudan S.A., priority 2009, dated 2014)

Columns and labels:
Assay type in all cases: in vivo, human
[1] = test system: umami-taste; assay: Flavourist tasting of tomato ketchup; details: tomato ketchup with 20 ppm geranyl lactamide; flavourists (2 male, 2 female)
Description: A tomato ketchup was prepared from 19% tomato paste (28-30% dry weight), 8% of vinegar (15%), 3% of sodium chloride, 20% of sugar and 50% of water. To one half of the batch was added 20 ppm of geranyl lactamide.

[2] = test system: umami-taste; assay: Sensory panel tasting of 0.3% NaCl solution; details: Solution B: 0.3% NaCl and 10 ppm geranyl lactamide; trained sensory panel of 20 women; Solution A (0.3% NaCl only): salty
Description: Two solutions were prepared: A a solution of 0.3% NaCl B a solution of 0.3% NaCl and 10 ppm geranyl lactamide The samples were tasted by a trained sensory panel composed of 20 women aged between 30 and 60.

[3] = test system: umami-taste; assay: Sensory panel tasting of flavoured potato chips; details: for taste description of potato chips: trained sensory panel of 20 women
Description: Plain potato chips were prepared. One part was flavoured with 1.2% sodium chloride (sample A) One part was flavoured with 1.2% sodium chloride and 0.3% mono sodium glutamate (sample b) One part was flavoured with 1.2% sodium chloride and 25 ppm geranyl lactamide (sample C). The samples were tasted by a trained sensory panel composed of 20 women aged between 30 and 60.

[4] = test system: umami-taste; assay: Sensory panel tasting of 0.3% NaCl and 0.03% MSG solution; details: Solution B: 0.3% NaCl, 0.03% MSG and 10 ppm geranyl lactamide, trained sensory panel of 20 women, Solution A without compound: salty
Description: Two solutions were prepared: A a solution of 0.3% NaCl and 0.03% MSG B a solution of 0.3% NaCl, 0.03% MSG and 10 ppm geranyl lactamide The samples were tasted by a trained sensory panel composed of 20 women aged between 30 and 60.

[5] = test system: umami-taste; assay: Flavourist tasting of tomato soup; details: tomato soup containing 15 ppm geranyl lactamide; flavourists (2 male, 2 female)
Description: A tomato soup mix was prepared from 9.4 g of sodium chloride, 1 g of mono sodium glutamate, 0.08 g ribonucleotides (ex yeast), 32 g of tomato powder (ex […]), 25.1 g of glucose, 21 g of starch (Ultrasperse 5 ex National Starch), 5 g of palm fat powder, 3 g of yeast powder, 1 g of onion powder, 0.15 g of carrot powder, 0.05 g of ground white pepper, 0.3 g of celery extract powder, 0.05 g of ground laurel leaf powder, and 1.85 g of sucrose. 25 G of the well mixed ingredients was added to 250 g of boiling water and stirred until completely dissolved. The reference soup was compared with a batch of the same soup containing 15 ppm of geranyl lactamide.

SMILES | taste of test ketchup compared with base ketchup [1] | taste description (findings of the panel) [2] | panel preference among potato chip samples ([3]; sample C (1.2% sodium chloride and 25 ppm geranyl lactamide) vs sample A (NaCl) and sample B (NaCl and 0.3% MSG)) | taste description of potato chips ([3]; sample C: 1.2% sodium chloride and 25 ppm geranyl lactamide) | taste description (findings of the panel) [4] | taste of test soup compared with reference soup [5] | taste description of potato chips ([3]; sample B: 1.2% sodium chloride and 0.3% mono sodium glutamate)
CC(C)=CCC/C(C)=C/CNC(=O)C(C)O (stereo not shown) [geranyl lactamide] | clearly more umami, more salty and had a pleasant savoury note | salty, umami | preferred over the other two samples | salty, umami, long lasting, savoury, bouillon | salty, umami, more bouillon-like, more complex, less sweet | more umami, had a long-lasting savoury aspect, was more salty and was more complex than the base soup | –
N[C@@H](CCC(=O)O)C(=O)[O-].[Na+] [mono sodium glutamate, reference compound] | – | – | – | – | – | – | salty and umami
